Measured values: patent US20260176320A1, “MODULATORS OF G-PROTEIN COUPLED RECEPTORS” (priority 2018, published 2026)
Like-named read-outs stand apart in the source and are kept apart here. Square brackets hold non-standard residues; d marks the D form. Peptide text beside a SMILES is read from it. * marks the point of attachment. X5 = O=C(CSCC(=O)*)NCCN1CCCC1=O; Aib = CC(C)(N)C(=O)O

How the values were obtained:
Format in all cases: cell-based
GLP-1R [1] = molecular target: T1, GLP-1R (Homo sapiens, UniProt P43220); test: HitHunter cAMP assay (GLP-1R); conditions: cAMP; for Emax: read-out: (Emax) GLP-1R
How it was run: (§1)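 Suspension cells (10,000/well) in HBSS with 10 mM HEPES, 625 μM IBMX, 0.2% BSA exposed to 22-point 2-fold agonist series in duplicate for 30 min at room temperature. cAMP measured by antibody immunocompetition with overnight development, luminescence read-out.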

GLP-1R [2] = molecular target: T1, GLP-1R; test: PathHunter β-arrestin assay
How it was run: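 Cells (5,000/well) plated overnight, then exposed to a 22-point 2-fold agonist dilution series in medium with 0.2% BSA for 90 min at 37 °C, 5% CO2. PathHunter detection reagent added; after 3 h at room temperature in the dark, luminescence read.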

GIP-R = molecular target: T2, GIP-R (Homo sapiens, UniProt P48546); test: HitHunter cAMP assay (GIP-R); conditions: cAMP; for Emax: read-out: (Emax) GIP-R; for Emax at 1 µM: read-out: (Emax) GIP-R at 1 μM, Table 3
T2 sequence (P48546 22-466): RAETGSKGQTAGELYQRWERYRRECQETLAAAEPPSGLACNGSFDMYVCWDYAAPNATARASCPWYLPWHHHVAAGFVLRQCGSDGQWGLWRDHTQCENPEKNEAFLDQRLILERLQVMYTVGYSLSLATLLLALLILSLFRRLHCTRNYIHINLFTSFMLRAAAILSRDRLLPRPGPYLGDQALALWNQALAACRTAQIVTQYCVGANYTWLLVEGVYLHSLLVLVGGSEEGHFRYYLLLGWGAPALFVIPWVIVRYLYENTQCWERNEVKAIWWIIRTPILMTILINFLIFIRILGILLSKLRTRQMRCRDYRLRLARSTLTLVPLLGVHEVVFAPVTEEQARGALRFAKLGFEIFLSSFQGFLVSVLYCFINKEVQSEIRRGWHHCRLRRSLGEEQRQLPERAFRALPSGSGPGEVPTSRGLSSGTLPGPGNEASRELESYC
How it was run: as §1

[3] = Table 3, read-out: EC50 GLP-1R/nM
[4] = Table 3A, read-out: EC50 GLP-1R/nM
[5] = PathHunter β-arrestin assay, read-out: β-arrestin activity EC50
[6] = Table 3, read-out: EC50 GIP-R/nM
[7] = Table 3A, read-out: EC50 GIP-R/nM

T1 sequence (P43220 24-463): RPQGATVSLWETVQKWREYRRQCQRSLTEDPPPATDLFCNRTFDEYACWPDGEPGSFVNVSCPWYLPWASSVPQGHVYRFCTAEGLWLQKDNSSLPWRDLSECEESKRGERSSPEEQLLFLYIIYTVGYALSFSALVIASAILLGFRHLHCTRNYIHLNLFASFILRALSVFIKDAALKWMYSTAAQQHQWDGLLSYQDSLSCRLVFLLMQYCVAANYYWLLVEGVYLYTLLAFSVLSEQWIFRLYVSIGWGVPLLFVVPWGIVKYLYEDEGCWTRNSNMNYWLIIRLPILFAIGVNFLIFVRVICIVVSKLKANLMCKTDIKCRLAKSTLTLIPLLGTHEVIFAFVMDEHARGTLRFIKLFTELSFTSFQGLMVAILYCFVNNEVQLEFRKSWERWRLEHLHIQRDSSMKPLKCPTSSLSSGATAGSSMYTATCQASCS

Compound | EC50 (GLP-1R [1]; EC50 GLP-1R/nM, Table 3) | EC50 (GLP-1R [1]; EC50 GLP-1R/nM, Table 3A) | Emax (GLP-1R [1]; Table 3) | Emax (GLP-1R [1]; Table 3A) | EC50 (GLP-1R [2]) | EC50 (GIP-R; EC50 GIP-R/nM, Table 3) | EC50 (GIP-R; EC50 GIP-R/nM, Table 3A) | Emax (GIP-R; Table 3) | Emax (GIP-R; Table 3A) | EC50 (GLP-1R [1]; [3]) | EC50 (GLP-1R [1]; [4]) | EC50 (GLP-1R [2]; [5]) | EC50 (GIP-R; [6]) | EC50 (GIP-R; [7]) | Emax at 1 µM (GIP-R)
CC[C@H](C)[C@H](NC(=O)[C@H](CO)NC(=O)[C@H](Cc1ccc(O)cc1)NC(=O)[C@H](CC(=O)O)NC(=O)[C@H](CO)NC(=O)[C@@H](NC(=O)[C@H](Cc1ccccc1)NC(=O)[C@@H](NC(=O)CNC(=O)[C@H](CCC(=O)O)NC(=O)CSCC(=O)NCCCCN1C(=O)CSC1=O)[C@@H](C)O)[C@@H](C)O)C(=O)N[C@@H](Cc1ccc(O)cc1)C(=O)N[C@@H](CC(C)C)C(=O)N[C@@H](CC(=O)O)C(=O)N[C@@H](CCCCN)C(=O)N[C@@H](CCC(N)=O)C(=O)N[C@@H](C)C(=O)N[C@@H](C)C(=O)NC(C)(C)C(=O)N[C@@H](CCC(=O)O)C(=O)N[C@@H](Cc1ccccc1)C(=O)N[C@H](C(=O)N[C@@H](CC(N)=O)C(=O)N[C@@H](Cc1c[nH]c2ccccc12)C(=O)N[C@@H](CC(C)C)C(=O)N[C@@H](CC(C)C)C(=O)N[C@@H](C)C(=O)NCC(=O)NCC(=O)N1CCC[C@H]1C(=O)N[C@@H](CO)C(=O)N[C@@H](CO)C(=O)NCC(=O)N[C@@H](C)C(=O)N1CCC[C@H]1C(=O)N1CCC[C@H]1C(=O)N1CCC[C@H]1C(=O)N[C@@H](CO)C(=O)N[C@@H](CCCCN)C(N)=O)C(C)C [Compound 184] | 1 to 10 nM | 1 to 10 nM | 99% | 99% | > 1000 nM | 10 to 100 nM | 10 to 100 nM | 43% | 43% | – | – | – | – | – | –
CC[C@H](C)[C@H](NC(=O)[C@H](CO)NC(=O)[C@H](Cc1ccc(O)cc1)NC(=O)[C@H](CC(=O)O)NC(=O)[C@H](CO)NC(=O)[C@@H](NC(=O)[C@H](Cc1ccccc1)NC(=O)[C@@H](NC(=O)CNC(=O)[C@H](CCC(=O)O)NC(=O)CN1C(=O)CSC1=O)[C@@H](C)O)[C@@H](C)O)C(=O)N[C@@H](Cc1ccc(O)cc1)C(=O)N[C@@H](CC(C)C)C(=O)N[C@@H](CC(=O)O)C(=O)N[C@@H](CCCCN)C(=O)N[C@@H](CCC(N)=O)C(=O)N[C@@H](C)C(=O)N[C@@H](C)C(=O)NC(C)(C)C(=O)N[C@@H](CCC(=O)O)C(=O)N[C@@H](Cc1ccccc1)C(=O)N[C@H](C(=O)N[C@@H](CC(N)=O)C(=O)N[C@@H](Cc1c[nH]c2ccccc12)C(=O)N[C@@H](CC(C)C)C(=O)N[C@@H](CC(C)C)C(=O)N[C@@H](C)C(=O)NCC(=O)NCC(=O)N1CCC[C@H]1C(=O)N[C@@H](CO)C(=O)N[C@@H](CO)C(=O)NCC(=O)N[C@@H](C)C(=O)N1CCC[C@H]1C(=O)N1CCC[C@H]1C(=O)N1CCC[C@H]1C(=O)N[C@@H](CO)C(=O)N[C@@H](CCCCN)C(N)=O)C(C)C [Compound 185] | – | – | 97% | 97% | – | – | – | – | – | 0.1 to 1 nM | 0.1 to 1 nM | > 1000 nM | > 1000 nM | > 1000 nM | 8.6%
CC[C@H](C)[C@H](NC(=O)[C@H](CO)NC(=O)[C@H](Cc1ccc(O)cc1)NC(=O)[C@H](CC(=O)O)NC(=O)[C@H](CO)NC(=O)[C@@H](NC(=O)[C@H](Cc1ccccc1)NC(=O)[C@@H](NC(=O)CNC(=O)[C@H](CCC(=O)O)NC(=O)c1ccc(C(=O)NCCN2C(=O)CSC2=O)cc1)[C@@H](C)O)[C@@H](C)O)C(=O)N[C@@H](Cc1ccc(O)cc1)C(=O)N[C@@H](CC(C)C)C(=O)N[C@@H](CC(=O)O)C(=O)N[C@@H](CCCCN)C(=O)N[C@@H](CCC(N)=O)C(=O)N[C@@H](C)C(=O)N[C@@H](C)C(=O)NC(C)(C)C(=O)N[C@@H](CCC(=O)O)C(=O)N[C@@H](Cc1ccccc1)C(=O)N[C@H](C(=O)N[C@@H](CC(N)=O)C(=O)N[C@@H](Cc1c[nH]c2ccccc12)C(=O)N[C@@H](CC(C)C)C(=O)N[C@@H](CC(C)C)C(=O)N[C@@H](C)C(=O)NCC(=O)NCC(=O)N1CCC[C@H]1C(=O)N[C@@H](CO)C(=O)N[C@@H](CO)C(=O)NCC(=O)N[C@@H](C)C(=O)N1CCC[C@H]1C(=O)N1CCC[C@H]1C(=O)N1CCC[C@H]1C(=O)N[C@@H](CO)C(=O)N[C@@H](CCCCN)C(N)=O)C(C)C [Compound 186] | – | – | 94% | 94% | – | – | – | – | – | 1 to 10 nM | 1 to 10 nM | > 1000 nM | > 1000 nM | > 1000 nM | 4%
CC[C@H](C)[C@H](NC(=O)[C@H](CO)NC(=O)[C@H](Cc1ccc(O)cc1)NC(=O)[C@H](CC(=O)O)NC(=O)[C@H](CO)NC(=O)[C@@H](NC(=O)[C@H](Cc1ccccc1)NC(=O)[C@@H](NC(=O)CNC(=O)[C@H](CCC(=O)O)NC(=O)CCC(=O)NCCN1C(=O)c2ccccc2C1=O)[C@@H](C)O)[C@@H](C)O)C(=O)N[C@@H](Cc1ccc(O)cc1)C(=O)N[C@@H](CC(C)C)C(=O)N[C@@H](CC(=O)O)C(=O)N[C@@H](CCCCN)C(=O)N[C@@H](CCC(N)=O)C(=O)N[C@@H](C)C(=O)N[C@@H](C)C(=O)NC(C)(C)C(=O)N[C@@H](CCC(=O)O)C(=O)N[C@@H](Cc1ccccc1)C(=O)N[C@H](C(=O)N[C@@H](CC(N)=O)C(=O)N[C@@H](Cc1c[nH]c2ccccc12)C(=O)N[C@@H](CC(C)C)C(=O)N[C@@H](CC(C)C)C(=O)N[C@@H](C)C(=O)NCC(=O)NCC(=O)N1CCC[C@H]1C(=O)N[C@@H](CO)C(=O)N[C@@H](CO)C(=O)NCC(=O)N[C@@H](C)C(=O)N1CCC[C@H]1C(=O)N1CCC[C@H]1C(=O)N1CCC[C@H]1C(=O)N[C@@H](CO)C(=O)N[C@@H](CCCCN)C(N)=O)C(C)C [Compound 187] | 10 to 100 nM | 10 to 100 nM | 89% | 89% | > 1000 nM | 10 to 100 nM | 10 to 100 nM | 58% | 58% | – | – | – | – | – | –
CC[C@H](C)[C@H](NC(=O)[C@H](CO)NC(=O)[C@H](Cc1ccc(O)cc1)NC(=O)[C@H](CC(=O)O)NC(=O)[C@H](CO)NC(=O)[C@@H](NC(=O)[C@H](Cc1ccccc1)NC(=O)[C@@H](NC(=O)CNC(=O)[C@H](CCC(=O)O)NC(=O)CCCC(=O)NCCN1C(=O)c2ccccc2C1=O)[C@@H](C)O)[C@@H](C)O)C(=O)N[C@@H](Cc1ccc(O)cc1)C(=O)N[C@@H](CC(C)C)C(=O)N[C@@H](CC(=O)O)C(=O)N[C@@H](CCCCN)C(=O)N[C@@H](CCC(N)=O)C(=O)N[C@@H](C)C(=O)N[C@@H](C)C(=O)NC(C)(C)C(=O)N[C@@H](CCC(=O)O)C(=O)N[C@@H](Cc1ccccc1)C(=O)N[C@H](C(=O)N[C@@H](CC(N)=O)C(=O)N[C@@H](Cc1c[nH]c2ccccc12)C(=O)N[C@@H](CC(C)C)C(=O)N[C@@H](CC(C)C)C(=O)N[C@@H](C)C(=O)NCC(=O)NCC(=O)N1CCC[C@H]1C(=O)N[C@@H](CO)C(=O)N[C@@H](CO)C(=O)NCC(=O)N[C@@H](C)C(=O)N1CCC[C@H]1C(=O)N1CCC[C@H]1C(=O)N1CCC[C@H]1C(=O)N[C@@H](CO)C(=O)N[C@@H](CCCCN)C(N)=O)C(C)C [Compound 188] | 10 to 100 nM | 10 to 100 nM | 101% | 101% | > 1000 nM | 1 to 10 nM | 1 to 10 nM | 107% | 107% | – | – | – | – | – | –
CC[C@H](C)[C@H](NC(=O)[C@H](CO)NC(=O)[C@H](Cc1ccc(O)cc1)NC(=O)[C@H](CC(=O)O)NC(=O)[C@H](CO)NC(=O)[C@@H](NC(=O)[C@H](Cc1ccccc1)NC(=O)[C@@H](NC(=O)CNC(=O)[C@H](CCC(=O)O)NC(=O)CSCC(=O)NCCN1CCCC1=O)[C@@H](C)O)[C@@H](C)O)C(=O)N[C@@H](Cc1ccc(O)cc1)C(=O)N[C@@H](CC(C)C)C(=O)N[C@@H](CC(=O)O)C(=O)N[C@@H](CCCNC(=N)N)C(=O)N[C@@H](CCC(N)=O)C(=O)N[C@@H](C)C(=O)N[C@@H](C)C(=O)NC(C)(C)C(=O)N[C@@H](CCC(=O)O)C(=O)N[C@@H](Cc1ccccc1)C(=O)N[C@H](C(=O)N[C@@H](CC(N)=O)C(=O)N[C@@H](Cc1c[nH]c2ccccc12)C(=O)N[C@@H](CC(C)C)C(=O)N[C@@H](CC(C)C)C(=O)N[C@@H](C)C(=O)NCC(=O)NCC(=O)N1CCC[C@H]1C(=O)N[C@@H](CO)C(=O)N[C@@H](CO)C(=O)NCC(=O)N[C@@H](C)C(=O)N1CCC[C@H]1C(=O)N1CCC[C@H]1C(=O)N1CCC[C@H]1C(=O)N[C@@H](CO)C(N)=O)C(C)C [Compound 189] (X5-EGTFTSDYSIYLDRQAA[Aib]EFVNWLLAGGPSSGAPPPS-NH2) | – | – | 94% | 94% | – | – | – | – | – | 1 to 10 nM | 1 to 10 nM | > 1000 nM | > 1000 nM | > 1000 nM | 4.5%
